Experimental data as given in US9321772B2, “Substituted pyrazolo[3,4-D]pyrimidines and uses thereof” (The Regents of the University of California, priority 2011, dated 2016).
Entries after “also recorded” stand apart in the source; their conditions may differ.

What was measured:
ptc>dRet^MEN2B flies = assay: Drosophila ptc>dRetMEN2B viability assay; type: in vivo; conditions: for notum, scutellum and cuticle defects of ptc>dRetMEN2B adults: drug fed flies; for effect of reducing erk gene dosage on drug efficacy in viability assay: ptc>dRetMEN2B
Description: FIG. 1A. Suppression of Ret^MEN2B-induced developmental block and whole animal toxicity were scored based on number of embryos (n) that survived as pupae (x) and adults (y). Drugs were mixed into food and fed to flies starting at larval stages.
FIG. 1B. Percent viability of control or drug treated flies determined for pupae (x/n) and adults (y/n).
Described herein is a Drosophila MEN2B model in which an intracellular mutation in the Drosophila Ret ortholog (dRet) was targeted to the eye (Read, R. D. et al., Genetics, 2005. 171(3): p. 1057-81). […] The screen is conducted in developing drosophila embryos. Under normal circumstances, drosophila embryos pass through four developmental steps: embryo→larvae→pupae→adult. […] We calibrated the ptc>dRetMEN2B assay to permit 50% survival to pupariation and 0% survival to adulthood. Mutated forms of RET are believed to be causative in human thyroid cancers including multiple endocrine neoplasia types 2A and 2B (MEN2A and MEN2B). The screen identifies small molecules that (a) suppress the toxicity induced by oncogenic RET and (b) allow flies to develop to functional adults. […] 64(19): p. 7099-109; Sun, L. et al., J Med Chem, 2003. 46(7): p.

[1] = system: ptc>dRet^MEN2B wing cells; assay: Wing-based assay for transformation and cell migration (ptc>dRetMEN2B); type: in vivo, Drosophila; conditions: oral administration
Description: FIG. 4E. Quantification of ptc>dRet^MEN2B phenotypes. Invasion was established by scoring for single/groups of GFP-labeled cells that relocated away from the ptc boundary (FIG. 4C, asterisks). Basal migration was scored as indentation of the apical surface (see FIG. 2B, arrows). Proliferation was scored as significant widening of the ptc boundary. The number of wings analyzed under each condition is indicated in brackets.
We previously developed a wing-based assay for transformation and cell migration that we utilized to explore Ras- and Src-based tumorigenesis (Vidal, M., D. E. Larson, and R. L. Cagan, Dev Cell, 2006. 10(1): p. 33-44). In this assay, the ptc-GAL4 driver directed oncogene expression in a stripe along the anterior-posterior axis; oncogene-based transformation led to over-proliferation, epithelial-to-mesenchymal transition (EMT), and cell migration away from the ptc domain.

[2] = system: 765>dRet^MEN2B wings (Ras/Erk pathway activity); assay: Adult wing vein pattern assay (765>dRetMEN2B); type: in vivo, Drosophila; conditions: drug fed flies
Description: The adult Drosophila wing consists of a stereotypical pattern of […] and two cross-veins; increased Ras/Erk pathway activity leads to ectopic veins (e.g., Refs. (Sawamoto, K. et al., Dev Biol, 1996. 178(1): p. 13-22; Guichard, A. et al., Development, 1999. 126(12): p. 2663-76)). Expression of oncogenic dRet throughout the developing wing (765>dRet^MEN2B) led to disruption of the overall adult wing pattern including ectopic wing veins (FIG. 3D). Reducing gene dosage of the erk ortholog rolled (765>dRet^MEN2B erk−/+) suppressed these phenotypes (FIG. 3D), confirming that wing vein formation is dependent on Ras/Erk activity.

[3] = system: MEN2B (MZ) thyroid cancer cells; assay: Immunoblot analysis of drug-treated MZ cells; type: cell-based, human; conditions: for phospho-Ret and downstream biomarkers: 1 hour of treatment; for cell death (protein markers of apoptosis): 3 days, 2 μM
Method: FIG. 19. […] MEN2A (TT) and MEN2B (MZ) thyroid cancer cells were treated with the indicated drugs for 3 days at a final concentration of 2 μM. Cell lystates were immunoblotted for protein markers of apoptosis. Vandetanib (vand.) was included for comparison.
FIG. 20A-20B. […] FIG. 20A. MEN2B (MZ) and FIG. 20B. MEN2A (TT) thyroid cancer cells were treated with the indicated concentrations of drug. Following 1 hour of treatment, cells were harvested and lysates prepared for immunoblotting to detect the indicated proteins. VD=vandetanib; SF=sorafenib.

[4] = system: TT cell tumors in athymic nu/nu mice; assay: MEN2 (TT) mouse xenograft model; type: in vivo; conditions: for reduction of tumor progression relative to vehicle: nude mice transplanted with TT cells, oral gavage, median per group; for toxicity as assessed by animal body weights / tumor growth, in words: nude mice with TT tumors, PO administration
Method: FIG. 11. […] TT thyroid cancer cells were implanted into athymic nu/nu mice subcutaneously into the right flank under the conditions listed. Upon establishment of tumors, drugs were administered by oral gavage (5 days ON/2 days OFF schedule). Tumors were measured using digital calipers. […] VD=vandetanib.
FIG. 18A-18D. […] FIG. 18A. MEN2B (MZ) thyroid cancer cells were treated with the indicated concentrations of each inhibitor (7 days) and cell viability was quantitated by MTT assay. FIG. 18B. MEN2A (TT) thyroid cancer cells were treated with the indicated concentrations of each inhibitor (7 days) and cell viability was quantitated by MTT assay. FIG. 18C. […] Change in tumor volume was calculated per mouse. Values shown are the median percent change per group. 20 and 10 animals for vehicle and drug treated mice, respectively, were analyzed. FIG. 18D. Body weight measurements of AD80, Vandetanib (VD) and vehicle treated nude mice transplanted with TT cells. Values shown are the median of 20 and 10 animals for vehicle and drug treated mice, respectively.
TT-based tumors were grown for 46 days in athymic nu/nu male mice prior to drug administration.

[5] = system: ER4 cells (ER4 subline of HCC827 cells resistant to erlotinib); assay: Erlotinib sensitivity of ER4 cells with AXL inhibitor treatment; type: cell-based; conditions: 0.1, 1, 10 micromolar in combination with erlotinib
Description: FIG. 21A-21C. Overcoming acquired resistance through AXL inhibitor treatment. Erlotinib plus AD57, AD80, or AD81 in ER4 cells (ER4 subline of HCC827 cells that are resistant to erlotinib treatment). Legend: diamond symbols are DMSO control, square symbols are 0.1 micromolar of compound, triangle symbols are 1 micromolar of compound, x symbol are 10 micromolar of compound, all in combination with erlotinib.

[6] = system: ER4 cells (ER4 subline of HCC827 cells resistant to erlotinib); assay: Apoptosis in ER4 cells (PARP cleavage, BIM induction); type: cell-based; conditions: 1 micromolar combined with erlotinib, 24 hour exposure
Method: FIG. 22. Induction of apoptosis by combined EGFR and AXL inhibition. ER4 cells (ER4 subline of HCC827 cells that are resistant to erlotinib treatment) plated at 0.5×10^6 cells/condition. 24-hour drug exposure. Apoptosis measured by induction of PARP cleavage and BIM induction. E is erlotinib, AD57 at 1 micromolar, AD80 at 1 micromolar, AD81 at 10 micromolar.

[7] = oral administration, drug mixed into food

Row | Structure (SMILES) | notum, scutellum and cuticle defects of ptc>dRetMEN2B adults (ptc>dRet^MEN2B flies) | rescue of ptc>dRetMEN2B viability (pupae, adults), in words (ptc>dRet^MEN2B flies; [7]) | effect of reducing erk gene dosage on drug efficacy in viability assay (ptc>dRet^MEN2B flies) | basal phospho-Src in wing epithelium [1] | suppression of dRetMEN2B-induced proliferation, EMT, invasion/basal migration [1] | ectopic wing vein / wing pattern phenotype [2] | phospho-Ret and downstream biomarkers [3] | cell death (protein markers of apoptosis) [3] | reduction of tumor progression relative to vehicle [4] [fold] | toxicity as assessed by animal body weights [4] | tumor growth, in words [4] | sensitivity to erlotinib [5] | apoptosis (PARP cleavage, BIM induction) [6] | animals rescued / developing to adulthood (ptc>dRet^MEN2B flies; [7]) | effect of reducing dTor on drug efficacy/toxicity (ptc>dRet^MEN2B flies; ptc>dRetMEN2B dTor-/+)
1 | CC(C)n1nc(-c2ccc(NC(=O)Nc3cc(C(F)(F)F)ccc3F)cc2)c2c(N)ncnc21 [AD80] | phenotypically normal | improved rescue relative to AD57 | did not alter efficacy | potently blocked | significantly improved suppression; also recorded: potently blocked | suppressed; also recorded: potently rescued | potent downregulation of phospho-Ret; also recorded: potent inhibitors | induce cell death | 3.1 | reduced body weight modulation relative to Vandetanib | enhanced tumor growth inhibition | confer dose-dependent sensitivity to erlotinib | enhances apoptosis | – | –
2 | CC(C)n1nc(-c2ccc(NC(=O)Nc3cccc(C(F)(F)F)c3)cc2)c2c(N)ncnc21 [AD57] | strongly suppressed; also recorded: complete suppression of notum and scutellum defects; also recorded: some cuticle defects | best single-agent hit; also recorded: potently suppressed | considerably enhanced the efficacy | suppressed phospho-Src in basal regions of the wing epithelium | potent in vivo suppression; also recorded: strongly suppressed | suppressed | potent inhibitors | induce cell death | ~3 | no detectable toxicity | displays antitumor activity; also recorded: significant suppression of tumor growth | confer dose-dependent sensitivity to erlotinib | enhances apoptosis | approximately 25% | dominantly suppressed the efficacy
